Where a SMILES comes first, the peptide text is derived from it.

The first series is described as follows: Transmission electron microscope (negative staining) of peptide assemblies. Conditions: TEM, negative staining with uranyl acetate, 120 kV; line of the table gives 120 mM.
Procedure: We used the negative staining technique to observe the morphologies formed by peptides. A micropipette was used to load 10 μL of sample solution to a carbon-coated copper grid, and we used a piece of filter paper to remove the excess solution. After rinsing the grid with the deionized water, we used uranyl acetate to stain the sample for 1 minute and then rinsed the grid with deionized water again.
For CCCC [tetrapeptide], the Morphology entry was “sphere”.

As to `N[C@@H](Cc1ccccc1)C(=O)N[C@@H](CS)C(=O)N[C@@H](Cc1c[nH]c2ccccc12)C(=O)N[C@@H](Cc1c[nH]c2ccccc12)C(=O)O` [FCWW] (H-FCWW-OH), the Morphology entry is listed as “aggregates”.

For `N[C@@H](Cc1ccccc1)C(=O)NCC(=O)N[C@@H](Cc1c[nH]c2ccccc12)C(=O)N[C@@H](Cc1c[nH]c2ccccc12)C(=O)O` [FGWW] (H-FGWW-OH), the Morphology entry is listed as “sphere”.

Consider `C[C@H](NC(=O)[C@H](Cc1ccc(O)cc1)NC(=O)[C@@H](N)Cc1ccccc1)C(=O)N[C@@H](Cc1ccc(O)cc1)C(=O)O` [FYAY] (H-FYAY-OH), for which the Morphology result is recorded as “sheet”.

As for `CC(C)C[C@H](NC(=O)[C@H](CC(C)C)NC(=O)[C@H](Cc1ccccc1)NC(=O)[C@@H](N)CCCCN)C(=O)O` [KFLL] (H-KFLL-OH), the Morphology result is recorded as “aggregates”.

In the case of `CC(C)[C@H](NC(=O)[C@@H](N)CC(N)=O)C(=O)N[C@@H](Cc1ccccc1)C(=O)N[C@@H](Cc1c[nH]cn1)C(=O)O` [NVFH] (H-NVFH-OH), the Morphology result is “aggregates”.

Regarding `CC[C@H](C)[C@H](NC(=O)[C@H](Cc1ccccc1)NC(=O)[C@H](Cc1c[nH]c2ccccc12)NC(=O)[C@@H](N)CC(C)C)C(=O)O` [LWFI] (H-LWFI-OH), the Morphology entry is “aggregates”.

For the compound `CC(C)C[C@H](NC(=O)[C@@H](NC(=O)[C@H](CC(C)C)NC(=O)[C@@H](N)C(C)C)C(C)C)C(=O)O` [VLVL] (H-VLVL-OH), the Morphology entry was “sheet”.

With `C[C@@H](O)[C@H](N)C(=O)N[C@H](C(=O)N[C@H](C(=O)N[C@H](C(=O)O)[C@@H](C)O)[C@@H](C)O)[C@@H](C)O` [TTTT] (H-TTTT-OH), the Morphology entry was “aggregates”.

For the compound `NC(=O)C[C@H](NC(=O)[C@H](CC(N)=O)NC(=O)[C@H](CC(N)=O)NC(=O)[C@@H](N)CC(N)=O)C(=O)O` [NNNN] (H-NNNN-OH), the Morphology result is “aggregates”.

In the case of `CC(C)[C@H](N)C(=O)N[C@@H](Cc1ccccc1)C(=O)N[C@@H](Cc1c[nH]cn1)C(=O)N[C@@H](CC(N)=O)C(=O)O` [VFHN] (H-VFHN-OH), the Morphology entry is reported as “aggregates”.

For `CSCC[C@H](NC(=O)[C@H](Cc1c[nH]c2ccccc12)NC(=O)[C@@H](N)Cc1c[nH]c2ccccc12)C(=O)N[C@@H](Cc1ccccc1)C(=O)O` [WWMF] (H-WWMF-OH), the Morphology entry is on record as “rod”.

Take `CC(C)C[C@H](NC(=O)[C@@H](N)CC(C)C)C(=O)N[C@@H](CCCNC(=N)N)C(=O)N[C@@H](CCC(N)=O)C(=O)O` [LLRQ] (H-LLRQ-OH): the Morphology result is reported as “aggregates”.

The same series, now with this note: aqueous solution or hydrogel; negative staining.
On to `N[C@@H](Cc1ccccc1)C(=O)NCC(=O)N[C@@H](Cc1c[nH]c2ccccc12)C(=O)N[C@@H](Cc1c[nH]c2ccccc12)C(=O)O` [FGWW] (H-FGWW-OH), for which the “morphology by TEM (in words)” value was “aggregates with different sizes”.

A further series in a line: Peptide hydrogel formation, vial-inverting method. Type of series: physicochemical. On the set-up: key to EXP / GELATION: 0: no hydrogel; 1: hydrogel. To be noted: 120 mM peptide (highest tested) in ultrapure water; pH 6.5-8.5 (1 N NaOH), ultrasonication, standing 48 h; vial-inverting method; precipitate, sol, suspension = no gel. Summed up:
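Gelation judged by vial inversion, a non-flowing self-supporting sample counting as hydrogel, after 48 h standing. Peptide in water at 30 mM first, escalating to 60, 90 and 120 mM if no gel; pH set to 6.5–8.5 by stepwise 1 N NaOH, each step sonicated briefly.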
CCCC [tetrapeptide]: the State entry is “suspension”.

With `N[C@@H](Cc1ccccc1)C(=O)N[C@@H](CS)C(=O)N[C@@H](Cc1c[nH]c2ccccc12)C(=O)N[C@@H](Cc1c[nH]c2ccccc12)C(=O)O` [FCWW] (H-FCWW-OH), the State entry was “gel”.

Regarding `N[C@@H](Cc1ccccc1)C(=O)NCC(=O)N[C@@H](Cc1c[nH]c2ccccc12)C(=O)N[C@@H](Cc1c[nH]c2ccccc12)C(=O)O` [FGWW] (H-FGWW-OH), the State result is on record as “precipitate”.

For the compound `C[C@H](NC(=O)[C@H](Cc1ccc(O)cc1)NC(=O)[C@@H](N)Cc1ccccc1)C(=O)N[C@@H](Cc1ccc(O)cc1)C(=O)O` [FYAY] (H-FYAY-OH), the State entry was “gel”.

Turning to `CC(C)C[C@H](NC(=O)[C@H](CC(C)C)NC(=O)[C@H](Cc1ccccc1)NC(=O)[C@@H](N)CCCCN)C(=O)O` [KFLL] (H-KFLL-OH), the State entry was “sol”.

With `CC(C)[C@H](NC(=O)[C@@H](N)CC(N)=O)C(=O)N[C@@H](Cc1ccccc1)C(=O)N[C@@H](Cc1c[nH]cn1)C(=O)O` [NVFH] (H-NVFH-OH), the State entry is listed as “suspension”.

`CC[C@H](C)[C@H](NC(=O)[C@H](Cc1ccccc1)NC(=O)[C@H](Cc1c[nH]c2ccccc12)NC(=O)[C@@H](N)CC(C)C)C(=O)O` [LWFI] (H-LWFI-OH): the State result was “sol”.

Turning to `CC(C)C[C@H](NC(=O)[C@@H](NC(=O)[C@H](CC(C)C)NC(=O)[C@@H](N)C(C)C)C(C)C)C(=O)O` [VLVL] (H-VLVL-OH), the State result is given as “gel”.

With `C[C@@H](O)[C@H](N)C(=O)N[C@H](C(=O)N[C@H](C(=O)N[C@H](C(=O)O)[C@@H](C)O)[C@@H](C)O)[C@@H](C)O` [TTTT] (H-TTTT-OH), the State result is “suspension”.

On to `NC(=O)C[C@H](NC(=O)[C@H](CC(N)=O)NC(=O)[C@H](CC(N)=O)NC(=O)[C@@H](N)CC(N)=O)C(=O)O` [NNNN] (H-NNNN-OH), for which the State result is “sol”.

As for `CC(C)[C@H](N)C(=O)N[C@@H](Cc1ccccc1)C(=O)N[C@@H](Cc1c[nH]cn1)C(=O)N[C@@H](CC(N)=O)C(=O)O` [VFHN] (H-VFHN-OH), the State result is listed as “suspension”.

`CSCC[C@H](NC(=O)[C@H](Cc1c[nH]c2ccccc12)NC(=O)[C@@H](N)Cc1c[nH]c2ccccc12)C(=O)N[C@@H](Cc1ccccc1)C(=O)O` [WWMF] (H-WWMF-OH): the State entry was “gel”.

For the compound `CC(C)C[C@H](NC(=O)[C@@H](N)CC(C)C)C(=O)N[C@@H](CCCNC(=N)N)C(=O)N[C@@H](CCC(N)=O)C(=O)O` [LLRQ] (H-LLRQ-OH), the State entry is listed as “suspension”.

Staying with this series, now noted: concentration at which the state was recorded: lowest of 30, 60, 90, 120 mM that gave a gel; 120 mM for non-gelating peptides.
As for CCCC [tetrapeptide], the “Concentration” value came to 120000 µM.

`N[C@@H](Cc1ccccc1)C(=O)N[C@@H](CS)C(=O)N[C@@H](Cc1c[nH]c2ccccc12)C(=O)N[C@@H](Cc1c[nH]c2ccccc12)C(=O)O` [FCWW] (H-FCWW-OH): the “Concentration” value worked out at 120000 µM.

In the case of `N[C@@H](Cc1ccccc1)C(=O)NCC(=O)N[C@@H](Cc1c[nH]c2ccccc12)C(=O)N[C@@H](Cc1c[nH]c2ccccc12)C(=O)O` [FGWW] (H-FGWW-OH), the “Concentration” value is 120000 µM.

Turning to `C[C@H](NC(=O)[C@H](Cc1ccc(O)cc1)NC(=O)[C@@H](N)Cc1ccccc1)C(=O)N[C@@H](Cc1ccc(O)cc1)C(=O)O` [FYAY] (H-FYAY-OH), the “Concentration” value is 120000 µM.

Take `CC(C)C[C@H](NC(=O)[C@H](CC(C)C)NC(=O)[C@H](Cc1ccccc1)NC(=O)[C@@H](N)CCCCN)C(=O)O` [KFLL] (H-KFLL-OH): the “Concentration” value was determined as 120000 µM.

Regarding `CC(C)[C@H](NC(=O)[C@@H](N)CC(N)=O)C(=O)N[C@@H](Cc1ccccc1)C(=O)N[C@@H](Cc1c[nH]cn1)C(=O)O` [NVFH] (H-NVFH-OH), the “Concentration” value was found to be 120000 µM.

Turning to `CC[C@H](C)[C@H](NC(=O)[C@H](Cc1ccccc1)NC(=O)[C@H](Cc1c[nH]c2ccccc12)NC(=O)[C@@H](N)CC(C)C)C(=O)O` [LWFI] (H-LWFI-OH), the “Concentration” value is 120000 µM.

`CC(C)C[C@H](NC(=O)[C@@H](NC(=O)[C@H](CC(C)C)NC(=O)[C@@H](N)C(C)C)C(C)C)C(=O)O` [VLVL] (H-VLVL-OH): the “Concentration” value is 120000 µM.

Take `C[C@@H](O)[C@H](N)C(=O)N[C@H](C(=O)N[C@H](C(=O)N[C@H](C(=O)O)[C@@H](C)O)[C@@H](C)O)[C@@H](C)O` [TTTT] (H-TTTT-OH): the “Concentration” value came out at 120000 µM.

As to `NC(=O)C[C@H](NC(=O)[C@H](CC(N)=O)NC(=O)[C@H](CC(N)=O)NC(=O)[C@@H](N)CC(N)=O)C(=O)O` [NNNN] (H-NNNN-OH), the “Concentration” value was found to be 120000 µM.

As for `CC(C)[C@H](N)C(=O)N[C@@H](Cc1ccccc1)C(=O)N[C@@H](Cc1c[nH]cn1)C(=O)N[C@@H](CC(N)=O)C(=O)O` [VFHN] (H-VFHN-OH), the “Concentration” value worked out at 120000 µM.

With `CSCC[C@H](NC(=O)[C@H](Cc1c[nH]c2ccccc12)NC(=O)[C@@H](N)Cc1c[nH]c2ccccc12)C(=O)N[C@@H](Cc1ccccc1)C(=O)O` [WWMF] (H-WWMF-OH), the “Concentration” value is 120000 µM.

Turning to `CC(C)C[C@H](NC(=O)[C@@H](N)CC(C)C)C(=O)N[C@@H](CCCNC(=N)N)C(=O)N[C@@H](CCC(N)=O)C(=O)O` [LLRQ] (H-LLRQ-OH), the “Concentration” value was determined as 120000 µM.

Staying with this series, now noted: peptide concentration 120 mM; vial-inverting method; 1 = hydrogel, 0 = no hydrogel.
CCCC [tetrapeptide] displayed a GELATION of 0.

Consider `N[C@@H](Cc1ccccc1)C(=O)N[C@@H](CS)C(=O)N[C@@H](Cc1c[nH]c2ccccc12)C(=O)N[C@@H](Cc1c[nH]c2ccccc12)C(=O)O` [FCWW] (H-FCWW-OH), for which the GELATION came to 1.

`N[C@@H](Cc1ccccc1)C(=O)NCC(=O)N[C@@H](Cc1c[nH]c2ccccc12)C(=O)N[C@@H](Cc1c[nH]c2ccccc12)C(=O)O` [FGWW] (H-FGWW-OH): the GELATION was found to be 0.

Compound `C[C@H](NC(=O)[C@H](Cc1ccc(O)cc1)NC(=O)[C@@H](N)Cc1ccccc1)C(=O)N[C@@H](Cc1ccc(O)cc1)C(=O)O` [FYAY] (H-FYAY-OH) registered a GELATION of 1.

In turn, `CC(C)[C@H](NC(=O)[C@@H](N)CC(N)=O)C(=O)N[C@@H](Cc1ccccc1)C(=O)N[C@@H](Cc1c[nH]cn1)C(=O)O` [NVFH] (H-NVFH-OH) had a GELATION of 0.

On to `CC[C@H](C)[C@H](NC(=O)[C@H](Cc1ccccc1)NC(=O)[C@H](Cc1c[nH]c2ccccc12)NC(=O)[C@@H](N)CC(C)C)C(=O)O` [LWFI] (H-LWFI-OH), for which the GELATION is 0.

For `CC(C)C[C@H](NC(=O)[C@@H](NC(=O)[C@H](CC(C)C)NC(=O)[C@@H](N)C(C)C)C(C)C)C(=O)O` [VLVL] (H-VLVL-OH), the GELATION was found to be 1.

In turn, `C[C@@H](O)[C@H](N)C(=O)N[C@H](C(=O)N[C@H](C(=O)N[C@H](C(=O)O)[C@@H](C)O)[C@@H](C)O)[C@@H](C)O` [TTTT] (H-TTTT-OH) displayed a GELATION of 0.

`NC(=O)C[C@H](NC(=O)[C@H](CC(N)=O)NC(=O)[C@H](CC(N)=O)NC(=O)[C@@H](N)CC(N)=O)C(=O)O` [NNNN] (H-NNNN-OH) came in with a GELATION of 0.

The compound `CC(C)[C@H](N)C(=O)N[C@@H](Cc1ccccc1)C(=O)N[C@@H](Cc1c[nH]cn1)C(=O)N[C@@H](CC(N)=O)C(=O)O` [VFHN] (H-VFHN-OH) returned a GELATION of 0.

`CSCC[C@H](NC(=O)[C@H](Cc1c[nH]c2ccccc12)NC(=O)[C@@H](N)Cc1c[nH]c2ccccc12)C(=O)N[C@@H](Cc1ccccc1)C(=O)O` [WWMF] (H-WWMF-OH) gave a GELATION of 1.

In turn, `CC(C)C[C@H](NC(=O)[C@@H](N)CC(C)C)C(=O)N[C@@H](CCCNC(=N)N)C(=O)N[C@@H](CCC(N)=O)C(=O)O` [LLRQ] (H-LLRQ-OH) had a GELATION of 0.

These data come from publication PMC10313671, “Accelerating the prediction and discovery of peptide hydrogels with human-in-the-loop” (Nature Communications, 2023).
